From ChEMBL document CHEMBL5356985, “Development of trisubstituted thiophene-3-arboxamide selenide derivatives as novel EGFR kinase inhibitors with cytotoxic activity” (RSC Med Chem, 2023)
≈ marks a conversion by molar mass, not a printed value.

Key:
[1] = system: A549; assay: Antiproliferative activity against human A549 cells assessed as cell growth inhibition at 20 uM incubated for 48 hrs by MTT assay; assay type: functional
[2] = system: SK-MEL-28; assay: Antiproliferative activity against human SK-MEL-28 cells assessed as cell growth inhibition at 20 uM incubated for 48 hrs by MTT assay; assay type: functional
[3] = system: HCT-116; assay: Antiproliferative activity against human HCT-116 cells assessed as cell growth inhibition at 20 uM incubated for 48 hrs by MTT assay; assay type: functional
[4] = system: MCF7; assay: Antiproliferative activity against human MCF7 cells assessed as cell growth inhibition at 20 uM incubated for 48 hrs by MTT assay; assay type: functional
[5] = system: SK-OV-3; assay: Antiproliferative activity against human SK-OV-3 cells assessed as reduction in cell viability incubated for 24 hrs by MTT assay; assay type: functional, cell-based; conditions: SK-OV-3, 24 h
[6] = Solubility in human plasma at pH 7.2 to 7.8 incubated for 4 hrs by HPLC analysis; assay type: ADME, cell-free
[7] = system: MCF7; assay: Antiproliferative activity against human MCF7 cells assessed as reduction in cell viability incubated for 24 hrs by MTT assay; assay type: functional, cell-based; conditions: MCF7, 24 h
[8] = system: A2780S; assay: Antiproliferative activity against human A2780S cells assessed as reduction in cell viability incubated for 24 hrs by MTT assay; assay type: functional, cell-based
[9] = system: MDA-MB-231; assay: Antiproliferative activity against human MDA-MB-231 cells assessed as reduction in cell viability incubated for 24 hrs by MTT assay; assay type: functional, cell-based; conditions: MDA-MB-231, 24 h
[10] = system: MCF7; assay: Antiproliferative activity against human MCF7 cells assessed as cell growth inhibition incubated for 48 hrs by MTT assay; assay type: functional, cell-based; conditions: MCF7, 48 h
[11] = system: HCT-116; assay: Antiproliferative activity against human HCT-116 cells assessed as cell growth inhibition incubated for 48 hrs by MTT assay; assay type: functional, cell-based; conditions: HCT-116, 48 h
[12] = system: A549; assay: Antiproliferative activity against human A549 cells assessed as cell growth inhibition incubated for 48 hrs by MTT assay; assay type: functional, cell-based; conditions: A549, 48 h
[13] = system: SK-MEL-28; assay: Antiproliferative activity against human SK-MEL-28 cells assessed as cell growth inhibition incubated for 48 hrs by MTT assay; assay type: functional, cell-based; conditions: SK-MEL-28, 48 h
[14] = Cytotoxicity against human HaCaT cells assessed as cell growth inhibition incubated for 48 hrs by MTT assay; assay type: toxicity, cell-based
[15] = biological target: T1, Epidermal growth factor receptor (Homo sapiens, UniProt P00533); assay: Inhibition of EGFR (unknown origin)
[16] = biological target: Epidermal growth factor receptor (Homo sapiens, UniProt P00533, L858R/T790M); assay: Inhibition of EGFR T790M/L858R mutant (unknown origin)
[17] = biological target: T1, Epidermal growth factor receptor; assay: Inhibition of EGFR (unknown origin) using poly E4Y1 and ATP as substrate incubated for 60 mins by ADP-Glo kinase assay
[18] = Cytotoxicity against human L02 cells assessed as reduction in cell viability; assay type: toxicity, cell-based
[19] = Selectivity index, ratio of IC50 for cytotoxicity against human L02 cells to IC50 for antiproliferative activity against human A549 cells; assay type: toxicity, cell-based; conditions: L02 cells and A549 cells, read-out: Ratio IC50
[20] = system: A549; assay: Antiproliferative activity against human A549 cells assessed as reduction in cell viability; assay type: functional, cell-based

T1 sequence (P00533 whole entry): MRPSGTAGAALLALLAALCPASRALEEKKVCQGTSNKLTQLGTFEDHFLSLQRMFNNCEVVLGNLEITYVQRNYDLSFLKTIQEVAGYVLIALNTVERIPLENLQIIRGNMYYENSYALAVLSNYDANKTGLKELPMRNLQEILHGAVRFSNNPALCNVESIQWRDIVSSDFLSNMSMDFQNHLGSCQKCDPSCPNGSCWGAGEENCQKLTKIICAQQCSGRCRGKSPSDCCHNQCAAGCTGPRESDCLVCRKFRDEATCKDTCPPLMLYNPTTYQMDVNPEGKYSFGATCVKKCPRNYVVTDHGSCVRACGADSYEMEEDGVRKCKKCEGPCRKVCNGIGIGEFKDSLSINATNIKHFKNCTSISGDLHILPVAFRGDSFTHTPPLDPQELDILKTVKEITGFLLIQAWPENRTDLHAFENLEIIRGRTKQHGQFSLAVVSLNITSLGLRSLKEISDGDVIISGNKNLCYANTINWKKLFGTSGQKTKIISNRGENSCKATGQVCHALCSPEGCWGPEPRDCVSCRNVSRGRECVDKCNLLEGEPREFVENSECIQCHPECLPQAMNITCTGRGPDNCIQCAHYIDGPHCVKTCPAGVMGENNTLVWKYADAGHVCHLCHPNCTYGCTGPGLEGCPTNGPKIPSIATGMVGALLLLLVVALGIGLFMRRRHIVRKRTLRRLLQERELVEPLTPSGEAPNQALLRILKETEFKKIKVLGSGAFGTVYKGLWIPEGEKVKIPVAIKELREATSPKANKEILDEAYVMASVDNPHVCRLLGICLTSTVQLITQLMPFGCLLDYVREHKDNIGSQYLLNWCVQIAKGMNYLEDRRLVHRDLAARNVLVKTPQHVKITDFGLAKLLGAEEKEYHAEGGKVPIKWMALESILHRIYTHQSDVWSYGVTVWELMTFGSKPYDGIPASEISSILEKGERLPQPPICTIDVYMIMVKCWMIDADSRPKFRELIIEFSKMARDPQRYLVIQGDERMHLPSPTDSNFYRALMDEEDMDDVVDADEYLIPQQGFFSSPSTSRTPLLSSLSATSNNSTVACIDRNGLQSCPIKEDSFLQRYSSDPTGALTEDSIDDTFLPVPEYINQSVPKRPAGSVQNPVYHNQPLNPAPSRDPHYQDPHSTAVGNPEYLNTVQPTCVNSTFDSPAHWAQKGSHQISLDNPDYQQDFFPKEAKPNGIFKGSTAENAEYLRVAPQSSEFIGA
Sequence of Epidermal growth factor receptor (Homo sapiens, UniProt P00533, L858R/T790M) (P00533 25-1210 T790M/L858R limits assumed): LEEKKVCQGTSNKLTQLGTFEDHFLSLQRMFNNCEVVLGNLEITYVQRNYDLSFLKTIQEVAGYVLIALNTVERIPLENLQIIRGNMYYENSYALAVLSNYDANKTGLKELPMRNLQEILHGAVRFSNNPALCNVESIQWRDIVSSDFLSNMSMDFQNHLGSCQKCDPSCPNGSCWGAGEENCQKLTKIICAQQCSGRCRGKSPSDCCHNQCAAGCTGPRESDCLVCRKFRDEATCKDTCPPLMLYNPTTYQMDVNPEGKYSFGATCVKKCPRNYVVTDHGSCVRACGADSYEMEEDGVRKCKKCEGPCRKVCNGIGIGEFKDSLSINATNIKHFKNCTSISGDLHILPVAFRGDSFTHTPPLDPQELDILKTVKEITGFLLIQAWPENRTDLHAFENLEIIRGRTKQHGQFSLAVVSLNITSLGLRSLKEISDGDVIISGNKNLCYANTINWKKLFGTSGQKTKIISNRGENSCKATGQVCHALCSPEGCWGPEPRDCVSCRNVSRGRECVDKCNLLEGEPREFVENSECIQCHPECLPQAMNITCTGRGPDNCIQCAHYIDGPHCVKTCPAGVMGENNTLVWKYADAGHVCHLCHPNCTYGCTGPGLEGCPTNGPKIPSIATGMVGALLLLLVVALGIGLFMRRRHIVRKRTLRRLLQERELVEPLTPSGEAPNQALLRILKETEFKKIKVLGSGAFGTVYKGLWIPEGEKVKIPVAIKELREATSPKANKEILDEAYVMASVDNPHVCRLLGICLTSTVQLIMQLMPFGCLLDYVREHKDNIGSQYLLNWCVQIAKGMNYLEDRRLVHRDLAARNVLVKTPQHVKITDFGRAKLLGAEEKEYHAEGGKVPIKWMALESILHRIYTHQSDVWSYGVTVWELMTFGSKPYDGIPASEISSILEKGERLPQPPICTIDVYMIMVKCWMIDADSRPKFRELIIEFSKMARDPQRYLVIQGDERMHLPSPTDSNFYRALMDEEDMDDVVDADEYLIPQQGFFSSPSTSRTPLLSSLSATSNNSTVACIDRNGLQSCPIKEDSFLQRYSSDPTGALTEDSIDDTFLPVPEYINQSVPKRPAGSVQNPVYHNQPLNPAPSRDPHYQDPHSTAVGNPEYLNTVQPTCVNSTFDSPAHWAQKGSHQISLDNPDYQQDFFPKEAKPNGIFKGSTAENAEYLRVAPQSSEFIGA

Compound	inhibition at 20 µM [1] [%]	inhibition at 20 µM [2] [%]	inhibition at 20 µM [3] [%]	inhibition at 20 µM [4] [%]	IC50 [10] [µM]	IC50 [11] [µM]	IC50 [12] [µM]	IC50 [13] [µM]	other results
Cc1sc([Se]c2sc(C)c(-c3cccc(Cl)c3)c2C(=O)NC(Cc2ccccc2)C(=O)N2CCCC2)c(C(=O)NC(Cc2ccccc2)C(=O)N2CCCC2)c1-c1cccc(Cl)c1 (stereo not drawn)	23	22	15	13					
COc1ccc(/C=C/C(=O)c2ccc(OC)c3c2OC(C)(C)C=C3)cc1O									IC50 [5]: 0.42 µM; solubility at 4 h [6]: 146 µg/mL (≈ 0.398 mM); IC50 [7]: 0.42 µM; IC50 [8]: 0.42 µM; IC50 [9]: 0.42 µM
Cc1sc([Se]c2sc(C)c(-c3cccc(F)c3)c2C(=O)NC(Cc2ccccc2)C(=O)N2CCCC2)c(C(=O)NC(Cc2ccccc2)C(=O)N2CCCC2)c1-c1cccc(F)c1 (stereo not drawn)	14	< 10	10	3					
Cc1sc([Se]c2sc(C)c(-c3ccccc3)c2C(=O)NC(C)C(=O)N2CCCC2)c(C(=O)NC(C)C(=O)N2CCCC2)c1-c1ccccc1 (stereo not drawn)	82	72	69	90	15.1	8.19	15	10.5	IC50 at 48 h [14]: 26.4 µM
Cc1sc(Br)c(C(=O)NCC(=O)N2CCCC2)c1-c1cccc(F)c1					43.7	39	42.6	40.1	
Cc1sc([Se]c2sc(C)c(-c3cccc(F)c3)c2C(=O)NC(CC(C)C)C(=O)N2CCCC2)c(C(=O)NC(CC(C)C)C(=O)N2CCCC2)c1-c1cccc(F)c1 (stereo not drawn)	52	18	57	70					
O=C(N/N=C/c1cnc(N2CCCC2)nc1)Nc1cc2c(Nc3ccc(F)c(Cl)c3)ncnc2cc1O[C@@H]1CCOC1									IC50 [15]: 0.0063 µM; IC50 [16]: 0.0084 µM
Cc1sc([Se]c2sc(C)c(-c3cccc(Cl)c3)c2C(=O)NC(C)C(=O)N2CCCC2)c(C(=O)NC(C)C(=O)N2CCCC2)c1-c1cccc(Cl)c1 (stereo not drawn)	38	13	70	90					
Cc1sc(Br)c(C(=O)NC(CO)C(=O)N2CCCC2)c1-c1cccc(Cl)c1 (stereo not drawn)					36.9	34.5	33.9	57.1	
Cc1sc([Se]c2sc(C)c(-c3cccc(Cl)c3)c2C(=O)NC(C(=O)N2CCCC2)C(C)C)c(C(=O)NC(C(=O)N2CCCC2)C(C)C)c1-c1cccc(Cl)c1 (stereo not drawn)	36	< 10	47	64					
c1ccc2c(c1)CCN2c1ncnc2cc3c(cc12)NCN3CCN1CCCC1									IC50 [15]: 0.032 µM
Cc1sc([Se]c2sc(C)c(-c3cccc(F)c3)c2C(=O)NCC(=O)N2CCCC2)c(C(=O)NCC(=O)N2CCCC2)c1-c1cccc(F)c1	79	70	73	88	13.4	9.22	17.4	11.5	IC50 at 48 h [14]: 24.7 µM
Cc1sc(Br)c(C(=O)NC(C)C(=O)N2CCCC2)c1-c1cccc(F)c1 (stereo not drawn)					47.7	31	44.6	49.4	
Cc1sc([Se]c2sc(C)c(-c3cccc(F)c3)c2C(=O)NC(C(=O)N2CCCC2)C(C)C)c(C(=O)NC(C(=O)N2CCCC2)C(C)C)c1-c1cccc(F)c1 (stereo not drawn)	35	36	63	58					
Cc1sc(Br)c(C(=O)NC(CO)C(=O)N2CCCC2)c1-c1cccc(Br)c1 (stereo not drawn)					32.7	24.7	28.8	54.6	
Cc1sc([Se]c2sc(C)c(-c3ccccc3)c2C(=O)NCC(=O)N2CCCC2)c(C(=O)NCC(=O)N2CCCC2)c1-c1ccccc1	45	< 10	25	89					
O=c1[nH]cc(F)c(=O)[nH]1 [FLUOROURACIL]					15.2	16.7	18.6	10.2	
Cc1sc([Se]c2sc(C)c(-c3cccc(Cl)c3)c2C(=O)NC(CO)C(=O)N2CCCC2)c(C(=O)NC(CO)C(=O)N2CCCC2)c1-c1cccc(Cl)c1 (stereo not drawn)	86	66	75	64	11.2	6.83	15.7	13.8	IC50 [17]: 0.727 µM; IC50 at 48 h [14]: 31.8 µM
Cc1sc([Se]c2sc(C)c(-c3cccc(Br)c3)c2C(=O)NC(Cc2ccccc2)C(=O)N2CCCC2)c(C(=O)NC(Cc2ccccc2)C(=O)N2CCCC2)c1-c1cccc(Br)c1 (stereo not drawn)	14	18	9	26					
Cc1sc([Se]c2sc(C)c(-c3cccc(Br)c3)c2C(=O)NC(C(=O)N2CCCC2)C(C)C)c(C(=O)NC(C(=O)N2CCCC2)C(C)C)c1-c1cccc(Br)c1 (stereo not drawn)	44	34	51	72					
COc1ccc(/C=C/C(=O)c2ccc(OC)c3c2OC(C)(C)C=C3)cc1OC(=O)CNC(=O)OC(C)(C)C									IC50 [5]: 0.12 µM; solubility at 4 h [6]: 2980 µg/mL (≈ 5.69 mM); IC50 [7]: 0.12 µM; IC50 [8]: 0.12 µM; IC50 [9]: 0.12 µM
COc1cc(C2c3cc4c(cc3C(OC3OC5COC(C)OC5C(O)C3O)C3COC(=O)C23)OCO4)cc(OC)c1O (stereo not drawn)									IC50 [18]: 3.5 µM; selectivity ratio [19]: 0.5; IC50 [20]: 9.4 µM
Cc1sc(Br)c(C(=O)NC(C)C(=O)N2CCCC2)c1-c1ccccc1 (stereo not drawn)					39.2	37	40.1	55	
Cc1sc([Se]c2sc(C)c(-c3cccc(F)c3)c2C(=O)NC(CO)C(=O)N2CCCC2)c(C(=O)NC(CO)C(=O)N2CCCC2)c1-c1cccc(F)c1 (stereo not drawn)	27	25	61	85					
Cc1sc([Se]c2sc(C)c(-c3cccc(F)c3)c2C(=O)NC(C)C(=O)N2CCCC2)c(C(=O)NC(C)C(=O)N2CCCC2)c1-c1cccc(F)c1 (stereo not drawn)	77	62	72	86	14.4	8.11	13.2	14.3	IC50 [17]: 0.835 µM; IC50 at 48 h [14]: 29.3 µM
